Some test systems named below: UACC-257 melanoma; SNB-19 CNS; T-47D breast; OVCAR-4 ovarian; M14 melanoma; A549 NSCLC; UO-31 renal; NCI-H226 lung; SNB-75 CNS; HT29 colon.
Test in all cases: NCI tumour cell line growth inhibition, 48 h

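Five concentrations, 48 hours, 96-well plates. GI50 = concentration required for 50% inhibition of growth. TGI: concentration producing complete growth inhibition.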

For the compound `CCN(CC)C(=S)[S][Bi]([S]C(=S)N(CC)CC)[S]C(=S)N(CC)CC`, the GI50 in the test on UACC-257 melanoma is 0.178 µM; with SNB-19 CNS it was 1.71 µM; with T-47D breast, 0.122 µM; in the test with OVCAR-4 ovarian, 0.165 µM; with M14 melanoma it was 0.218 µM; in the test on A549 NSCLC it was 1.74 µM. Moreover, the GI50 in the test with UO-31 renal is 0.216 µM; in the test with NCI-H226 lung it was 2.07 µM; with SNB-75 CNS, 0.213 µM; in the test on HT29 colon, 0.052 µM. The TGI in the test with UACC-257 melanoma was found to be 0.384 µM; in the test on SNB-19 CNS it was 3.08 µM; in the test with T-47D breast, 0.341 µM; with OVCAR-4 ovarian, 0.31 µM; with M14 melanoma it was 0.485 µM; with A549 NSCLC it was 3.27 µM. Further, the TGI with UO-31 renal turned out to be 0.468 µM; with NCI-H226 lung, 4.18 µM; with SNB-75 CNS it was 0.527 µM; in the test on HT29 colon, 0.229 µM.

`CC[C@H](C)C(=O)O[C@H]1C[C@H](O)C=C2C=C[C@H](C)[C@H](CC[C@@H](O)C[C@@H](O)CC(=O)O)[C@H]21`: the GI50 in the test on UACC-257 melanoma, in the test on SNB-19 CNS, in the test on T-47D breast, in the test with OVCAR-4 ovarian, in the test on M14 melanoma and in the test with A549 NSCLC was more than 100 µM each time. The GI50 in the test with UO-31 renal, in the test with NCI-H226 lung, with SNB-75 CNS and in the test on HT29 colon was more than 100 µM each time. The TGI in the test with UACC-257 melanoma, in the test on SNB-19 CNS, with T-47D breast, with OVCAR-4 ovarian, in the test on M14 melanoma and in the test on A549 NSCLC was more than 100 µM throughout. The TGI with UO-31 renal, in the test on NCI-H226 lung, with SNB-75 CNS and with HT29 colon was more than 100 µM in each case.

For `CC(=C/c1ccccc1)/C=C1/NC(=S)N(/C=C2\C(=O)Oc3ccccc3C2=O)C1=O`, the TGI in the test with UACC-257 melanoma, with SNB-19 CNS, with T-47D breast, with OVCAR-4 ovarian, in the test with M14 melanoma and with A549 NSCLC was more than 100 µM each time. Besides, the TGI in the test with UO-31 renal, in the test with NCI-H226 lung, with SNB-75 CNS and with HT29 colon was more than 100 µM each time. Further, the GI50 with UO-31 renal was 91.7 µM; in the test with HT29 colon it was more than 100 µM.

For `Cn1cc(C2=C(N3CCOCC3)C(=O)NC2=O)c2ccccc21`, the GI50 with UACC-257 melanoma, with SNB-19 CNS, in the test with T-47D breast, in the test with OVCAR-4 ovarian, with M14 melanoma and in the test on A549 NSCLC was more than 25 µM in each case. Moreover, the GI50 in the test on UO-31 renal, with NCI-H226 lung, in the test on SNB-75 CNS and with HT29 colon was more than 25 µM in each case. Further, the TGI with UACC-257 melanoma, with SNB-19 CNS, in the test on T-47D breast, in the test with OVCAR-4 ovarian, in the test on M14 melanoma and in the test with A549 NSCLC was more than 25 µM throughout. For the same compound, the TGI in the test with UO-31 renal, in the test with NCI-H226 lung, in the test with SNB-75 CNS and with HT29 colon was more than 25 µM each time.

Consider `O=C(O)c1cc2ccccc2c2c1C(=O)c1ccccc1-2`, for which the TGI in the test on UACC-257 melanoma, in the test on SNB-19 CNS, in the test with T-47D breast, in the test on OVCAR-4 ovarian, in the test with M14 melanoma and in the test with A549 NSCLC was more than 100 µM throughout. Besides, the TGI in the test with UO-31 renal, with NCI-H226 lung, with SNB-75 CNS and in the test with HT29 colon was more than 100 µM in each case.

`C=CC1=C(C)C2=NC1=CC1=NC(=C(CC)/C1=C\O)C=C1N=C3C(=C1C)C(=O)[C@H](C(=O)OC)C3=C1NC(=C2)[C@@H](C)[C@@H]1CCC(=O)O`: the TGI with UACC-257 melanoma, with SNB-19 CNS, with T-47D breast, with OVCAR-4 ovarian, in the test with M14 melanoma and with A549 NSCLC was more than 100 µM in each case. The TGI in the test on UO-31 renal, with NCI-H226 lung, in the test with SNB-75 CNS and with HT29 colon was more than 100 µM each time.

In the case of `Cc1cc(C(=O)c2ccccc2)c(C)c2c1[nH]c1ccc(Cl)cc12`, the GI50 in the test with UACC-257 melanoma was 4.48 µM; in the test with SNB-19 CNS it was 0.0541 µM; in the test with T-47D breast it was 0.0447 µM; with OVCAR-4 ovarian, 3.01 µM; with M14 melanoma, 0.0456 µM; in the test with A549 NSCLC, 0.0834 µM. Also, the GI50 with UO-31 renal was 0.102 µM; in the test on NCI-H226 lung, 0.892 µM; in the test with SNB-75 CNS, 0.025 µM; with HT29 colon it was 0.0393 µM. For the same compound, the TGI with UACC-257 melanoma is 79.6 µM; with SNB-19 CNS, 35.1 µM; in the test on T-47D breast it was more than 87.2 µM; with OVCAR-4 ovarian, 60 µM; with M14 melanoma it was more than 41.7 µM; with A549 NSCLC, more than 100 µM. The TGI in the test with UO-31 renal is 14.1 µM; in the test on NCI-H226 lung, 15.6 µM; in the test with SNB-75 CNS it was 3.42 µM; with HT29 colon, 1.93 µM.

With `CC(=O)c1nc2ccccc2n1CC(=O)c1cccc(Cl)c1`, the GI50 with UACC-257 melanoma is 1.69 µM; with SNB-19 CNS, 0.808 µM; in the test on T-47D breast, 0.881 µM; in the test with OVCAR-4 ovarian, 0.752 µM; in the test with M14 melanoma, 0.262 µM; with A549 NSCLC it was 2.67 µM. The GI50 is 1.27 µM with UO-31 renal, 3.39 µM with NCI-H226 lung, 0.313 µM in the test on SNB-75 CNS and 11.6 µM in the test with HT29 colon. The TGI with UACC-257 melanoma, with SNB-19 CNS, with T-47D breast, in the test on OVCAR-4 ovarian, with M14 melanoma and in the test with A549 NSCLC was more than 100 µM throughout. The TGI in the test on UO-31 renal was more than 100 µM; in the test on NCI-H226 lung, more than 44.2 µM; in the test with SNB-75 CNS it was 59.8 µM; in the test with HT29 colon, more than 100 µM.

For the origin of these results see PubChem BioAssay (NCI).
